In the assay the target is T1, Sclerostin (Homo sapiens, UniProt Q9BQB4).
T1 construct: host or cells: human embryonic cells (reporter cells)
T1 sequence (Q9BQB4 24-213): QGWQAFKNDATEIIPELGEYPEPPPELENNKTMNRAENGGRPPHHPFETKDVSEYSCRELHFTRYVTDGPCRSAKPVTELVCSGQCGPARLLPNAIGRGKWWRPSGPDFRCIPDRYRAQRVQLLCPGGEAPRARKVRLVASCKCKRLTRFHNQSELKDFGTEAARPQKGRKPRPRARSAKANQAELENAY
Kind of assay: Luciferase Wnt pathway activity assay: inhibition of sclerostin by restoration of Wnt signaling in human cells. In kind it is cell-based. The protocol: The Y axis represents Relative Light Units (RLU) which represents Wnt pathway signaling. Addition of Wnt (W) activates the Wnt pathway, while addition of Sclerostin (S) inhibits the Wnt pathway. […] Compound concentrations are indicated in μM.
Briefly, cells (e.g., human cells) are treated with a predetermined dose of a candidate compound for a complete dosing schedule.
Concentrations are indicated along the X axis in micromolar values.

What is called IC50 is the concentration that inhibits the measured activity by half.

`COc1cc2c(cc1O)C[C@H]1c3c(cc(O)c(OC)c3-2)CCN1C` [Compound 1, (S)-1,10-dimethoxy-6-methyl-5,6,6a,7-tetrahydro-4H-dibenzo[de,g]quinoline-2,9-diol] returned an IC50 of 5 µM.

These data come from patent US20140023653A1, “BOLDINE DERIVATIVES FOR PROMOTING BONE GROWTH” (OSTEOGENEX, INC., priority 2012, published 2014).
